Results taken from publication PMC4770093, “The role of kinetic context in apparent biased agonism at GPCRs” (Nature Communications, 2016).
“And” between values parts separate entries of the source, which are not always exact repeats. Equal entries are not always repeated.

Tests used:
D2LR [1] = target: T1, D2LR (Homo sapiens, UniProt P14416); assay: xCELLigence cellular impedance (CI) assay; assay type: cell-based; set-up: expressed in transfected cells; conditions: for Emax: relative to the maximal response of ropinirole
Procedure: Changes in CI on ligand stimulation were measured using the xCELLigence system (Roche Applied Science). The baseline cell index of each well of a 96-well E-plate was measured in the presence of growth medium before cell seeding. Cells were seeded at a density of 20,000 cells per well and grown for 16–20 h followed by 4 h serum starvation. Cells were treated with the ligands and the cell index values were obtained immediately after ligand stimulation every 15 s for a total time of 90 min. The retrieved cell index values were then normalized by dividing the cell index at the time of ligand addition followed by subtraction of the vehicle control at each time point.

D2LR [2] = target: T1, D2LR; assay: Inhibition of forskolin-induced cAMP production (BRET CAMYEL biosensor); conditions: for EC50: pEC50 cAMP; for Emax: relative to the maximal response of ropinirole; for Inhibition of cAMP production measured using a CAMYEL BRET biosensor, Net BRET: single experiments n = 1, 2, 3
Procedure: Flp-In-CHO cells stably expressing the D2LR were seeded at a density of 2,000,000 cells per 10-cm dish and were transfected the following day using polyethylenimine as the transfection reagent. The cells were transfected with 3 μg CAMYEL, to allow the detection of cAMP levels within the cells. Twenty-four hours after transfection, the cells were plated into 96-well CulturPlates (PerkinElmer) and grown overnight. The cells were equilibrated in Hank's balanced salt solution at 37 °C (or 25 °C when indicated) before starting the experiment. The cells were co-stimulated with the agonists and 10 μM forskolin for the indicated timeframes when the BRET readings were captured. Coelenterazine (Promega) was added at a final concentration of 5 μM at least 3 min before measurement. […] Net BRET was determined by subtraction of the vehicle control co-added with 10 μM forskolin.

D2LR [3] = target: T1, D2LR; assay: biochemical
Procedure: The cells were harvested in PBS containing 2 mM EDTA and centrifuged at 300 g for 3 min. The resulting pellet was resuspended in ice-cold assay buffer (20 mM HEPES, 100 mM NaCl, 6 mM MgCl2, 1 mM EGTA and 1 mM EDTA pH 7.4) and the centrifugation step was repeated. The intact cell pellet was then resuspended in assay buffer and homogenized using a Polytron homogenizer. After centrifugation (1,000 g, 10 min), the pellet was discarded and the supernatant was recentrifuged at 30,000 g for 1 h at 4 °C using a Sorvall Evolution RC ultracentrifuge (Thermo Scientific). The resulting pellet was resuspended in assay buffer and stored in 250 μl aliquots at −80 °C. Membrane protein concentration was determined using the method of Bradford.
All radioligand binding experiments were conducted at 37 °C in a 1-ml reaction volume in assay buffer (20 mM HEPES, 100 mM NaCl, 6 mM MgCl2, 1 mM EGTA and 1 mM EDTA pH 7.4) containing 100 μM GppNHp and 0.1% ascorbic acid. In all cases, nonspecific binding was determined in the presence of 10 μM haloperidol. […] Filter-bound radioactivity was measured by scintillation spectrometry after the addition of 3.5 ml of Ultima Gold (PerkinElmer) using a Tri-Carb 2900TR liquid scintillation counter (PerkinElmer).
where Y denotes the percentage-specific binding, Top and Bottom denote the maximal and minimal asymptotes, respectively, IC50 denotes the X-value when the response is midway between Bottom and Top, and nH denotes the Hill slope factor. IC50 values obtained from the inhibition curves were converted to Ki values using the Cheng and Prusoff equation[61].

D2LR [4] = target: T1, D2LR; assay: Quantification of biased agonism between pathways (operational model, LogBias); assay type: cell-based; set-up: expressed in transfected cells
Excerpt: where Top and Bottom represent the maximal and minimal asymptote of the dose–response curve, [A] is the molar concentration of agonist and EC50 is the molar concentration of agonist required to give a response half way between bottom and top. Dose–response data were fitted to the following form of the operational model of agonism[12] to allow the quantification of biased agonism
where Em is the maximal possible response of the system, Basal is the basal level of response, KA represents the equilibrium dissociation constant of the agonist (A) and τ is an index of the signalling efficacy of the agonist that is defined as RT/KE, where RT is the total number of receptors and KE is the coupling efficiency of each agonist-occupied receptor, and n is the slope of the transducer function that links occupancy to response. The analysis assumes that the transduction machinery used for a given cellular pathway are the same for all agonists, such that the Em and transducer slope (n) are shared between agonists. Data for all compounds for each pathway were fit globally, to determine values of KA and τ. Biased agonism was quantified as previously described. […] The relative bias can then be calculated for each agonist at the two different signalling pathways by subtracting the Δlog(τ/KA) of one pathway from the other to give a ΔΔlog(τ/KA) value, which is a measure of bias. […] All affinity (pKi or pKA), potency (pEC50) and transduction ratio (log(τ/KA)) parameters were estimated as logarithms. When fold changes in bias are described, this was calculated by converting values of ΔΔlog(τ/KA) to the corresponding antilog value. […] Thus, as the application of t-tests and analyses of variance assume Gaussian distribution, estimating the parameters as logarithms allows valid statistical comparison. All results are expressed as the mean±s.e.m. As such, we performed a Brown–Forsythe test (Graphpad prism 6) to assure ourselves of equal variance when such parameters are compared.

D2LR [5] = target: T1, D2LR; assay: Gαi1 G protein activation (BRET); assay type: cell-based; set-up: expressed in transfected cells
Procedure: G protein activation. Flp-In-CHO cells stably expressing the D2LR were seeded at a density of 2,000,000 cells per 10-cm dish and were transfected the following day using polyethylenimine as the transfection reagent. […] Twenty-four hours after transfection, the cells were plated into 96-well CulturPlates (PerkinElmer) and grown overnight. The cells were equilibrated in Hank's balanced salt solution at 37 °C before starting the experiment. The cells were stimulated with the agonists for the indicated timeframes when the BRET readings were captured. Coelenterazine (Promega) was added at a final concentration of 5 μM at least 3 min before measurement. […] Net BRET was determined by subtraction of the vehicle control from the agonist-induced response.

[6] = 5 minute timepoint, dopamine as reference agonist

T1 sequence (P14416 whole entry): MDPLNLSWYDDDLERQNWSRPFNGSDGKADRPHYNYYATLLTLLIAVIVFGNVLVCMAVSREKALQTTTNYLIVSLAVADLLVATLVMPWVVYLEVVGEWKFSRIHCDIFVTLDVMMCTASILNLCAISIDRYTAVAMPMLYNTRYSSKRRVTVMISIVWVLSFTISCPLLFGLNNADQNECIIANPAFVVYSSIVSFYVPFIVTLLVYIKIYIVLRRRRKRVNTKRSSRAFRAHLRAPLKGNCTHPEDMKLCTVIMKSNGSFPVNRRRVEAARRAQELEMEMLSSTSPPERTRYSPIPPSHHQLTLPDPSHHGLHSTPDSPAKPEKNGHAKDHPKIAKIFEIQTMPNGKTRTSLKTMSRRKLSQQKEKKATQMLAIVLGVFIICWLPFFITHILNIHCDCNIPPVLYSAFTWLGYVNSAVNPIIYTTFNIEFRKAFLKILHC

## CCCN(CCC)CCc1cccc2c1CC(=O)N2 [Ropinirole, ropinirole]
D2LR [1]
  Log(τ/KA) Cellular impedance: 8.32 ± 0.05
  ΔLog(τ/KA) Cellular impedance: -0.23 ± 0.06
D2LR [1]; 2 min
  EC50: 4.68 nM
  Emax: 100%
D2LR [1]; 5 min
  EC50: 5.13 nM
  Emax: 100%
D2LR [1]; 10 min
  EC50: 7.94 nM
  Emax: 100%
D2LR [1]; 15 min
  EC50: 10.7 nM
  Emax: 100%
D2LR [1]; 30 min
  EC50: 17 nM
  Emax: 100%
D2LR [1]; 45 min
  EC50: 19.5 nM
  Emax: 100%
D2LR [1]; 60 min
  EC50: 24 nM
  Emax: 100%
D2LR [1]; 75 min
  EC50: 28.2 nM
  Emax: 100%
D2LR [1]; 90 min
  EC50: 34.7 nM
  Emax: 100%
D2LR [2]
  Log(τ/KA) cAMP: 7.67 ± 0.04
  ΔLog(τ/KA) cAMP: -0.39 ± 0.06
D2LR [2]; 2 min
  EC50: 9.55 nM
D2LR [2]; 5 min
  EC50: 22.4 nM
D2LR [2]; 10 min
  EC50: 41.7 nM
D2LR [2]; 15 min
  EC50: 42.7 nM
D2LR [2]; 30 min
  EC50: 34.7 nM
D2LR [2]; 45 min
  EC50: 97.7 nM
D2LR [2]; 60 min
  EC50: 186 nM
D2LR [2]; 75 min
  EC50: 107 nM
D2LR [2]; 90 min
  EC50: 174 nM
D2LR [2]; read-out: Emax cAMP, 2 min
  Emax: 100%
D2LR [2]; read-out: Emax cAMP, 5 min
  Emax: 100%
D2LR [2]; read-out: Emax cAMP, 10 min
  Emax: 100%
D2LR [2]; read-out: Emax cAMP, 15 min
  Emax: 100%
D2LR [2]; read-out: Emax cAMP, 30 min
  Emax: 100%
D2LR [2]; read-out: Emax cAMP, 45 min
  Emax: 100%
D2LR [2]; read-out: Emax cAMP, 60 min
  Emax: 100%
D2LR [2]; read-out: Emax cAMP, 75 min
  Emax: 100%
D2LR [2]; read-out: Emax cAMP, 90 min
  Emax: 100%
D2LR [2]; time 2.21667 mins
  Inhibition of cAMP production measured using a CAMYEL BRET biosensor, Net BRET: 0.139 and 0.1472 and 0.1432
D2LR [2]; time 2.58333 mins
  Inhibition of cAMP production measured using a CAMYEL BRET biosensor, Net BRET: 0.1633 and 0.1578 and 0.1547
D2LR [2]; time 2.95 mins
  Inhibition of cAMP production measured using a CAMYEL BRET biosensor, Net BRET: 0.1708 and 0.1681 and 0.157
D2LR [2]; time 3.31667 mins
  Inhibition of cAMP production measured using a CAMYEL BRET biosensor, Net BRET: 0.1659 and 0.1812 and 0.1714
D2LR [2]; time 3.68333 mins
  Inhibition of cAMP production measured using a CAMYEL BRET biosensor, Net BRET: 0.1811 and 0.1789 and 0.1805
D2LR [2]; time 4.05 mins
  Inhibition of cAMP production measured using a CAMYEL BRET biosensor, Net BRET: 0.191 and 0.1937 and 0.1853
D2LR [2]; time 4.41667 mins
  Inhibition of cAMP production measured using a CAMYEL BRET biosensor, Net BRET: 0.1979 and 0.1996 and 0.185
D2LR [2]; time 4.78333 mins
  Inhibition of cAMP production measured using a CAMYEL BRET biosensor, Net BRET: 0.2031 and 0.2011 and 0.1899
D2LR [2]; time 5.15 mins
  Inhibition of cAMP production measured using a CAMYEL BRET biosensor, Net BRET: 0.2133 and 0.1934 and 0.1923
D2LR [2]; time 5.51667 mins
  Inhibition of cAMP production measured using a CAMYEL BRET biosensor, Net BRET: 0.202 and 0.1988 and 0.1873
D2LR [2]; time 5.88333 mins
  Inhibition of cAMP production measured using a CAMYEL BRET biosensor, Net BRET: 0.214 and 0.1997 and 0.2002
D2LR [2]; time 6.25 mins
  Inhibition of cAMP production measured using a CAMYEL BRET biosensor, Net BRET: 0.2138 and 0.204 and 0.1926
D2LR [2]; time 6.61667 mins
  Inhibition of cAMP production measured using a CAMYEL BRET biosensor, Net BRET: 0.2113 and 0.1972 and 0.1923
D2LR [2]; time 6.98333 mins
  Inhibition of cAMP production measured using a CAMYEL BRET biosensor, Net BRET: 0.2032 and 0.2012 and 0.1937
D2LR [2]; time 7.35 mins
  Inhibition of cAMP production measured using a CAMYEL BRET biosensor, Net BRET: 0.2141 and 0.1963 and 0.1945
D2LR [2]; time 7.71667 mins
  Inhibition of cAMP production measured using a CAMYEL BRET biosensor, Net BRET: 0.2104 and 0.2011 and 0.1956
D2LR [2]; time 8.08333 mins
  Inhibition of cAMP production measured using a CAMYEL BRET biosensor, Net BRET: 0.2099 and 0.2149 and 0.1931
D2LR [2]; time 8.45 mins
  Inhibition of cAMP production measured using a CAMYEL BRET biosensor, Net BRET: 0.2126 and 0.2072 and 0.1885
D2LR [2]; time 8.81667 mins
  Inhibition of cAMP production measured using a CAMYEL BRET biosensor, Net BRET: 0.2189 and 0.2083 and 0.199
D2LR [2]; time 9.18333 mins
  Inhibition of cAMP production measured using a CAMYEL BRET biosensor, Net BRET: 0.2207 and 0.2105 and 0.1943
D2LR [2]; time 9.55 mins
  Inhibition of cAMP production measured using a CAMYEL BRET biosensor, Net BRET: 0.212 and 0.2054 and 0.2079
D2LR [2]; time 9.91667 mins
  Inhibition of cAMP production measured using a CAMYEL BRET biosensor, Net BRET: 0.2149 and 0.2049 and 0.2075
D2LR [2]; time 10.2833 mins
  Inhibition of cAMP production measured using a CAMYEL BRET biosensor, Net BRET: 0.2152 and 0.2111 and 0.2029
D2LR [2]; time 10.65 mins
  Inhibition of cAMP production measured using a CAMYEL BRET biosensor, Net BRET: 0.2279 and 0.2163 and 0.2038
D2LR [2]; time 11.0167 mins
  Inhibition of cAMP production measured using a CAMYEL BRET biosensor, Net BRET: 0.2157 and 0.2032 and 0.2052
D2LR [2]; time 11.3833 mins
  Inhibition of cAMP production measured using a CAMYEL BRET biosensor, Net BRET: 0.2205 and 0.2041 and 0.2034
D2LR [2]; time 11.75 mins
  Inhibition of cAMP production measured using a CAMYEL BRET biosensor, Net BRET: 0.2254 and 0.2085 and 0.1983
D2LR [2]; time 12.1167 mins
  Inhibition of cAMP production measured using a CAMYEL BRET biosensor, Net BRET: 0.2217 and 0.2066 and 0.2006
D2LR [2]; time 12.4833 mins
  Inhibition of cAMP production measured using a CAMYEL BRET biosensor, Net BRET: 0.2324 and 0.2048 and 0.2074
D2LR [2]; time 12.85 mins
  Inhibition of cAMP production measured using a CAMYEL BRET biosensor, Net BRET: 0.2281 and 0.2112 and 0.2008
D2LR [2]; time 13.2167 mins
  Inhibition of cAMP production measured using a CAMYEL BRET biosensor, Net BRET: 0.2271 and 0.2125 and 0.2083
D2LR [2]; time 13.5833 mins
  Inhibition of cAMP production measured using a CAMYEL BRET biosensor, Net BRET: 0.2211 and 0.208 and 0.2059
D2LR [2]; time 13.95 mins
  Inhibition of cAMP production measured using a CAMYEL BRET biosensor, Net BRET: 0.2209 and 0.2042 and 0.208
D2LR [2]; time 14.3167 mins
  Inhibition of cAMP production measured using a CAMYEL BRET biosensor, Net BRET: 0.2319
D2LR [3]
  Ki: 2510 nM
D2LR [4]
  LogBias CI – pERK1/2: -0.11 ± 0.10
  LogBias Gαi1 – pERK1/2: -0.31 ± 0.15
  LogBias GαoB – pERK1/2: -0.04 ± 0.14
  LogBias cAMP – pERK1/2: -0.27 ± 0.10
  LogBias β-arr2 – pERK1/2: 0.26 ± 0.21
D2LR [4]; [6]
  LogBias Gαi1 – CI: -0.19 ± 0.15
  LogBias Gαi1 – GαoB: -0.26 ± 0.18
  LogBias Gαi1 – cAMP: -0.03 ± 0.15
  LogBias GαoB – CI: 0.07 ± 0.13
  LogBias GαoB – cAMP: 0.23 ± 0.13
  LogBias cAMP – CI: -0.16 ± 0.09
  LogBias β-arr2 – CI: 0.38 ± 0.21
  LogBias β-arr2 – Gαi1: 0.57 ± 0.24
  LogBias β-arr2 – GαoB: 0.31 ± 0.23
  LogBias β-arr2 – cAMP: 0.54 ± 0.21
D2LR [5]
  Log(τ/KA) Gαi1 activation: 6.75 ± 0.09
  ΔLog(τ/KA) Gαi1 activation: -0.43 ± 0.13
